Like-named read-outs stand apart in the source and are kept apart here.
Experiments:
P2X7 receptor = biological target: T1, P2X7 receptor (Homo sapiens, UniProt Q99572); assay: P2X7 assay (bbATP-induced ethidium bromide fluorescence in THP-1 cells); format: cell-based
T1 construct: 200 μl of a suspension of THP-1 cells; endogenous in cells; host or cells: THP-1 cells
T1 sequence (Q99572 1-595): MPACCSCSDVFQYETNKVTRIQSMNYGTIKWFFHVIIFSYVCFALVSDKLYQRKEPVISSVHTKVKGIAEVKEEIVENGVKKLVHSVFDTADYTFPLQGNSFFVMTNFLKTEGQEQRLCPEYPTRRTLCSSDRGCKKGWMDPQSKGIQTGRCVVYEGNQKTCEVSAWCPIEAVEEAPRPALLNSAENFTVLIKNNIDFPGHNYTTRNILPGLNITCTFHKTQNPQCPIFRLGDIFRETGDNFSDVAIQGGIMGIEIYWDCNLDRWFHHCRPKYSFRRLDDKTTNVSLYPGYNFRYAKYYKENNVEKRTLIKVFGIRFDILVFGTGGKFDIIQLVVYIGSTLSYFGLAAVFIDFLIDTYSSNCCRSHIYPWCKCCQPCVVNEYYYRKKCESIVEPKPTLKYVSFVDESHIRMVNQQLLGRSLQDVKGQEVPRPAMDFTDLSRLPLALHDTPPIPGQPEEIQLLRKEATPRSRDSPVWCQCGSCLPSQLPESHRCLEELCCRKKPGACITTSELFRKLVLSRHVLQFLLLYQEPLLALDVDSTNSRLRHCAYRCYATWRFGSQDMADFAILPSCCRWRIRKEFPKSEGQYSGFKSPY
From the text: Certain compounds such as benzoylbenzoyl adenosine triphosphate (bbATP) are known to be agonists of the P2X7 receptor, effecting the formation of pores in the plasma membrane (Drug Development Research (1996), 37(3), p. 126). Consequently, when the receptor is activated using bbATP in the presence of ethidium bromide (a fluorescent DNA probe), an increase in the fluorescence of intracellular DNA-bound ethidium bromide is observed. The increase in fluorescence can be used as a measure of P2X7 receptor activation and therefore to quantify the effect of a compound on the P2X7 receptor.
In this manner, the compound of the invention was tested for antagonist activity at the P2X7 receptor. Thus, the test was performed in 96-well flat bottomed microtitre plates, the wells being filled with 250 μl of test solution comprising 200 μl of a suspension of THP-1 cells (2.5×10^6 cells/ml) containing 10^−4M ethidium bromide, 25 μl of a high potassium buffer solution containing 10^−5M bbATP, and 25 μl of the high potassium buffer solution containing concentrations of test compound typically from 30 μM-0.001 μM. The plate was covered with a plastic sheet and incubated at 37° C. for one hour. The plate was then read in a Perkin-Elmer fluorescent plate reader, excitation 520 nm, emission 595 nm, slit widths: Ex 15 nm, Em 20 nm. […]

primary rat hepatocytes = assay: In vitro phospholipidosis protocol (DHPE-TRITC accumulation); format: cell-based, Han Wistar rats
Method: Assessment of a compounds potential to induce phospholipidosis was determined by an in vitro fluorescent assay which reports the accumulation of phospholipids in primary rat hepatocytes. Hepatocytes were isolated from Han Wistar rats by a 2-stage collagenase digest method. The hepatocytes were then plated on collagen coated 96-well plates in William's E medium. The cells were left to adhere for 1 hour then the media was replaced with a solution of 250 μg.ml^−1 collagen in Hepatozyme cell culture medium.
Cells were then cultured for 48 hours with the medium being changed at 24 hours. At 48 hours post isolation the medium was changed to Hepatozyme supplemented with the fluorescent phospholipid N-(6-tetramethylrhodaminethiocarbamoyl)-1,2-dihexadecanoyl-sn-glycero-3-phosphoethanolamine (DHPE-TRITC) (5 μg.ml^−1). At this time, test compounds were added to the hepatocytes at a range of concentrations in a serial dilution with a final concentration of 0.4% dimethylsulfoxide (used as solvent for test compounds).
The cells were incubated for a further 24 hours and then fixed by addition of a phosphate buffered saline (PBS) solution containing the nuclear stain Hoechst 33342 (final concentration 2 μM) and paraformaldehyde solution (final concentration 4%). The plates were kept at room temperature for 30 minutes then washed three times in PBS solution.
Images of the hepatocytes were then acquired using an automated microscope platform (GE In Cell Analyser 3000). Image analysis algorithms were then used to assess cell viability and the accumulation of the DHPE-TRITC label within viable hepatocytes. The quantified accumulation observed with test compounds was then normalised to a range of 0, representing the accumulation observed in cells exposed to vehicle only, and 1, representing cells exposed to 10 μM amiodarone. The maximum accumulation across the dose response of the test compound, where cell viability is >50%, is reported, as is the dose at which this maximum was observed. The lowest dose that caused >50% cell toxicity is also reported. […]

Bioavailability - Rat PK = format: in vivo, male Sprague Dawley rats; conditions: male, Sprague Dawley, plasma, oral 5 mg/kg vs IV 3 mg/kg
Method: Pharmacokinetic parameters and concepts are used in DMPK to describe the fate of a compound in the body. The distribution and excretion of a compound are reflected in the plasma concentration-time profile. By appropriate dosing, sampling and analysis key as parameters (clearance, volume, half-life, bioavailability etc.) can be determined.
Test compounds were typically dosed intravenously to the right lateral tail vein of male Sprague Dawley rats at a dose level of 3 mg/kg (1 ml/kg) in DMA:water (40:60 v/v). Rats were dosed orally at a dose level of 5 mg/kg (2 ml/kg) in 0.5% hydroxypropylmethylcellulose (HPMC, w/v)/0.1% Tween 80 (v/v) in water). […]
To determine the plasma levels of test compound, 50 μl of methanol was added to 50 μl of each of the test samples, whilst 40 μl of methanol was added to the 50 μl aliquots of control plasma containing 10 μl spikes of authentic standard used to create a calibration line and QCs. […] The resultant supernatants were analysed by HPLC-MSMS after an appropriate, selective and sensitive method had been created by optimizing both cone voltage and collision energy.
Pharmacokinetic parameters were derived from concentration-time using non-compartmental analysis in WinNonLin®. Bioavailability was calculated using the following equation F=AUCPO*DoseIV/AUCIV*DosePO.

[1] = biological target: T2, ion channel subunit encoded by the human ether-a-go-go-related gene (hERG) (Homo sapiens, UniProt Q12809); assay: hERG binding protocol (radioligand competition, HEK cell membranes expressing hERG); conditions: for P2X7:hERG Ratio: ratio of P2X7:hERG affinity
T2 construct: expressed in transfected cells; host or cells: HEK (human embryonic kidney) cells, membranes
Method: (§1) The hERG assay was performed according to the procedure described in WO2005/037052. The affinity (pIC50) of compounds for the ion channel subunit encoded by the human ether-a-go-go-related gene (hERG) gene was determined by competition binding of radioligand 3,7-Bis[2-(4-nitro[3,5-^3H]phenyl)ethyl]-3,7-diazabicyclo[3.3.1]nonane to HEK (human embryonic kidney) cell membranes expressing hERG, in a filter wash format.
(§2) Membranes were incubated for 3 hours at room temperature with serial dilutions of the test compounds, radioligand 3,7-Bis[2-(4-nitro[3, 5-3H]phenyl)ethyl]-3,7-diazabicyclo[3.3.1]nonane at 1 nM final concentration, and assay buffer (10 mM HEPES, 130 mM NaCl, 5 mM KCl, 1 mM EGTA, 0.8 mM MgCl2, pH 7.4). The assay was conducted in a final volume of 200 μL, in the presence of 1% (v/v) dimethyl sulphoxide. Non-specific binding was determined by measuring the binding of 3,7-Bis[2-(4-nitro[3,5-^3H]phenyl)ethyl]-3,7-diazabicyclo[3.3.1]nonane in the presence of 10 μM astemizole. During this incubation GF/B filter plates were immersed in coating solution 0.3% (v/v) Polyethylenimine and 0.2% (w/v) BSA). Following incubation assay plates were harvested onto precoated GF/B filter plates using a Tomtec harvester.
(§3) The pIC50, defined as the negative logarithm of the concentration of compound required for 50% reduction in 3,7-Bis[2-(4-nitro[3,5-^3H]phenyl)ethyl]-3,7-diazabicyclo[3.3.1]nonane binding, was determined. A ‘less than’ FIGURE indicates <50% inhibition at the quoted concentration, this being the highest concentration tested.

hERG = biological target: T3, hERG (Homo sapiens, UniProt Q12809); assay: as above; conditions: human, HEK cell membranes expressing hERG, pH 7.4; highest concentration tested
T3 construct: expressed in transfected cells; host or cells: HEK (human embryonic kidney) cells, membranes
Method: as §1, §2, §3

[2] = Plasma protein binding (equilibrium dialysis); format: in vitro ADME; conditions: pH 7.4; human plasma, 37° C., 5 μM compound; read-out: human plasma protein binding (% bound) (converted)
Method: The extent of plasma protein binding was determined via equilibrium dialysis of a compound between human plasma and aqueous buffer at 37° C., and determination of the concentrations of compound in the plasma and buffer by HPLC-MS/MS.
Dialysis cells (molecular weight cut-off 5000) were prepared by rinsing with water followed by soaking in the dialysis buffer for a minimum of 1 hour. The dialysis buffer was isotonic buffered saline pH 7.4. Stock solutions of compound in dimethylsulfoxide were prepared at a concentration of 0.5 mM.
The stock DMSO solution of compound was added to the plasma at a ratio of 10 μl of DMSO to each ml of plasma. This gave a 1% DMSO in plasma solution with each compound at a concentration of 5 μM.
Dialysis cells were then prepared and one half of the cell filled with 750 μl of dialysis buffer and the other half of the cell with 750 μl of plasma solution of compound. […]
The samples were then analysed using HPLC-MS/MS. […]
The concentration of compound in the samples were determined using MassLynx version 4.1 software (produced by Waters/Micromass) that automatically calculated a calibration curve and interpolated the concentration of compound in the analytes. Plasma protein binding was determined from the measured concentration as the percentage of compound bound in plasma (% bound) using the following equation;

T2 sequence (Q12809 whole entry): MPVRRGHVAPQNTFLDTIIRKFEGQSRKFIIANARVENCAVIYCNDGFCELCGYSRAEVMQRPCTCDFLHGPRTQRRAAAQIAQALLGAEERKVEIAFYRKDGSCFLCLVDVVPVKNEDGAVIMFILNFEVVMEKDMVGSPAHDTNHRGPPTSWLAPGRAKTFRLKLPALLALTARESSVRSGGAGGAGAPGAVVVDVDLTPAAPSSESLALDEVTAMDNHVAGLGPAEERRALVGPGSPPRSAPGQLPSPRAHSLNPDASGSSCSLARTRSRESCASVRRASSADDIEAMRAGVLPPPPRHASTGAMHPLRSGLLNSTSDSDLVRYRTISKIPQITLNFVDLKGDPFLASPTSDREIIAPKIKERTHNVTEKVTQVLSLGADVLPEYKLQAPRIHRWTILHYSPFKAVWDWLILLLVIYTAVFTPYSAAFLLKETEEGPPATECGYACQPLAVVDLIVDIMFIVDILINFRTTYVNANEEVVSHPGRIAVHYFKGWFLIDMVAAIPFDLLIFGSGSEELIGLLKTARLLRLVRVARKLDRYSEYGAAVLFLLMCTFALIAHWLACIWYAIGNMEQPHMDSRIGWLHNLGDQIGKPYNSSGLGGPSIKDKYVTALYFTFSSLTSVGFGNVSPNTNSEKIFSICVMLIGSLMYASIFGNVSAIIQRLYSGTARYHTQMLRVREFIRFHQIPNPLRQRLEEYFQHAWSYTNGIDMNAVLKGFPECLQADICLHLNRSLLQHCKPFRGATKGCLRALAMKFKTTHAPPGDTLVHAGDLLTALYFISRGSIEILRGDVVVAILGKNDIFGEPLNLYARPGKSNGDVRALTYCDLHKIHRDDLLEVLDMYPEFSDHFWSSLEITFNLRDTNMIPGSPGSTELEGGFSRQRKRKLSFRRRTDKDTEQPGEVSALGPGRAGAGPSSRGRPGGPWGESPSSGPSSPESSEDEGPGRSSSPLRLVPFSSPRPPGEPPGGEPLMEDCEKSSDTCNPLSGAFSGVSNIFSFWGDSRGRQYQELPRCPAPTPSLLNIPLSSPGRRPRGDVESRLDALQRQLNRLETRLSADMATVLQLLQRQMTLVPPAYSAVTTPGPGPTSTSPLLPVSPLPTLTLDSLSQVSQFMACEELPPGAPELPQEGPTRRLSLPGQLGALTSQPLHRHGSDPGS
T3 sequence (Q12809 whole entry): as above

In the case of `O=C(NCC1(O)CCCCCC1)c1c(Cl)ccc2nc(N3CC[C@H](NCCO)C3)ccc12` [Example 1, 6-Chloro-N-[(1-hydroxycycloheptyl)methyl]-2-{(3S)-3-[(2-hydroxyethyl)amino]-pyrrolidin-1-yl}quinoline-5-carboxamide], the IC50 (P2X7 receptor; 10^-5M bbATP, antagonist activity, read-out: P2X7 pIC50 (converted)) is reported as 3.98 nM, the IC50 (P2X7 receptor; bbATP, read-out: P2X7 IC50) is reported as ≤ 5 nM and the maximum accumulation concentration (primary rat hepatocytes; dose at which maximum accumulation was observed) is reported as 71 µM. The minimum toxic concentration (primary rat hepatocytes; lowest dose that caused >50% cell toxicity) was 198 µM, the “maximum accumulation (phospholipidosis)” value (primary rat hepatocytes; relative to 10 μM amiodarone control (=1), vehicle = 0, cell viability >50%) was 0.9 and the bioavailability (Bioavailability - Rat PK) was 14%. For the same molecule, the IC50 ([1]; radioligand competition binding) was > 100000 nM, the “P2X7:hERG Ratio” value [1] was >20,000 and the “P2X7:hERG Ratio” value ([1]; listed as compound according to the present invention) was > 20,000. The inhibition at 3 h (hERG) was < 50%, the melting point was 138 to 140 °C and the fraction unbound at 5 µM [2] was 0.3.

Source: patent US8106073B2, “Quinoline derivatives 057” (AstraZeneca AB, priority 2007, dated 2012)
